Target: T1, human PTP1B catalytic domain (residues 1–298) (Homo sapiens, UniProt P18031)
T1 construct: The catalytic domain (residues 1–298) of human PTP1B; His tag (N); made in house; host or cells: E. coli
T1 sequence (P18031 1-298): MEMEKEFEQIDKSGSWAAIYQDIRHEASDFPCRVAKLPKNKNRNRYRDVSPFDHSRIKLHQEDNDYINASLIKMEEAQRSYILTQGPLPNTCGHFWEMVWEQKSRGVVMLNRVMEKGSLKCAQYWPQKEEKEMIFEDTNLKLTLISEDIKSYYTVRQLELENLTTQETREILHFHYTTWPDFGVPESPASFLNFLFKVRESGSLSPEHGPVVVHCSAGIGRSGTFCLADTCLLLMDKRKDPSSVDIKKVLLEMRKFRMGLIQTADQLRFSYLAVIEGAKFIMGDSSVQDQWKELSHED
Assay: hPTP1B in vitro activity assay (pNPP dephosphorylation)
Type: biochemical
Conditions: Isomer 1 compared with Isomer 2 (5S/5R diastereomers separated by chiral HPLC)
Method: Compounds were serially diluted in DMSO and spotted into the assay plate. Both the enzyme and substrate were diluted into the assay buffer containing 25 mM tris-bis-propone (pH 7.0 @ rt) and 0.1 mg/ml of BSA. 40 of μL enzyme solution was added to the assay plate containing compounds and was incubated for 30 minutes. 40 μL of substrate solution was then added to the assay plate to initiate the reaction. The initial reaction rates of the dephosphorylation of p-nitrophenylphosphate to p-nitrophenol are measured by monitoring absorbance at 410 nm on a SpectraMax for 15–30 min.

O=C(O)C(F)(F)F.O=C(O)C(F)(F)F.O=C1C[C@@H](c2ccc(C[C@H](Nc3nc4cc(F)ccc4s3)c3nc4ccccc4[nH]3)cc2)S(=O)(=O)N1.O=C1C[C@H](c2ccc(C[C@H](Nc3nc4cc(F)ccc4s3)c3nc4ccccc4[nH]3)cc2)S(=O)(=O)N1 (single isomer, unassigned; isomer 1) [4.179 Isomer 1]
relative biological activity of the separated diastereomers in the enzyme assay: more biologically active
